Results reported in paper PMC12655252, “Synthesis of 1H-Pyrrolo[3,2-g]isoquinoline Derivatives as Ligands Targeting Haspin Kinase” (Molecules, 2025).

Experiments:
Haspin = conditions: Figure 2; cited from earlier work
HsCK1ε = biological target: T1, HsCK1ε (Homo sapiens, UniProt P49674); test: ADP-Glo in vitro kinase inhibition assay, CK1ε; assay type: biochemical; conditions: 10 μM ATP, read-out: CK1 % residual activity; for remaining activity at 1 µM: 1 μM compound; for remaining activity at 10 µM: 10 μM compound
T1 construct: made in house; host or cells: Sf9 insect cells
Method: (§1) We previouly reported that substitution at the 3-position with halogen atoms or pyridinyl or formyl groups was compatible with high potency toward Haspin kinase. To check if the current structural changes were in line with potent Haspin inhibition and high selectivity, enabling consideration of these compounds as possible targeting ligands for the PROTAC approach, compounds 2, 3, 8–11, and 15–17 were evaluated toward a panel of eight protein kinases, including Haspin, as well as other kinases known to be frequently cross-inhibited (CLK1, DYRK1A, CDK9/Cyclin T, GSK-3β, CK1ε, CDK5/p25, and Pim1) (Table 1). The percentage of residual kinase activity was evaluated at 10 μM and 1 μM compound concentrations. […].
(§2) Kinase inhibition was tested in 384-well plates using the ADP-GloTM assay kit (Promega, Madison, WI, USA) according to the procedure recommended by the manufacturer. Reactions were set up in a final volume of 6 μL in an appropriate kinase buffer (10 mM MgCl2, 1 mM EGTA, 1 mM DTT, 25 mM Tris-HCl pH 7.5, 50 μg/mL heparin) with either protein or peptide as the substrate in the presence of 10 μM ATP. To stop the kinase reaction, 6 μL of ADP-GloTM Kinase Reagent was added after 30 min at 30 °C. Then, after 50 min of incubation at room temperature (RT), 12 μL of Kinase Detection Reagent was added. The transmitted signal was measured after 1 h at RT using the Envision (Perkin Elmer, Waltham, MA, USA) microplate luminometer and expressed in relative light units (RLU). In order to determine the half-maximal inhibitory concentration (IC50), all assays were performed in duplicate in the absence or presence of increasing doses of the tested compounds. GraphPad Prism10 software (GraphPad Software, San Diego, CA, USA) was used to fit dose–response curves and to determine the IC50 values. Kinase activities are given as percentages of maximal activity, i.e., measured in the absence of inhibitor. Peptide substrates were obtained from Proteogenix (Schiltigheim, France).
(§3) The following protein kinases were analyzed in this study: CDK5/p25 (human, vector pGEX-2T, expressed in bacteria; kindly provided by Dr. J. H. Wang) was assayed with 0.8 μg/μL of histone H1 as substrate; HsCDK9/CyclinT (NP_001252/KAI4065659, cloned in pTEFb vector, expressed by baculovirus in Sf9 insect cells) were assayed with 0.27 μg/μL of the following peptide: […], as substrate; HsCK1ε (NP_001885, cloned in pFAST-BAC vector, expressed in Sf9 insect cells) was assayed with 0.022 μg/μL of the following peptide: […]pAYSITA (“Sp” stands for phosphorylated serine) as CK1-specific substrate; HsGSK3β (AAH12760, cloned in pFAST-BAC, expressed by baculovirus in Sf9 insect cells) were assayed with 0.010 μg/μL of GS-1 peptide, a GSK-3-selective substrate ([…]pEDEEE); HsHaspin-kd (NP_114171, kinase domain, amino acids 470–798 cloned in pGEX-6P-3, expressed in bacteria) was assayed with 0.007 μg/μL of histone H3 (1–21) peptide ([…]) as substrate; Pim-1 (KAI4018123, expressed in bacteria) was assayed with 0.8 μg/μL of histone H1 as substrate; HsCLK1 (NP_004062, cloned in pFAST-BAC, expressed in Sf9 insect cells) was assayed with 0.027 μg/μL of the peptide: […]; RnDYRK1A-kd (Rattus norvegicus, amino acids 1–499, pGEX-2TK, expressed in bacteria, gift from Dr. W. Becker, Aachen, Germany) was tested in the presence of 0.033 μg/μL of the peptide: […].

HsCLK1 = biological target: T2, HsCLK1 (Homo sapiens, UniProt P49759); test: ADP-Glo in vitro kinase inhibition assay, CLK1; assay type: biochemical; conditions: 10 μM ATP, read-out: CLK1 % residual activity; for remaining activity at 1 µM: 1 μM compound; for remaining activity at 10 µM: 10 μM compound
T2 construct: made in house; host or cells: Sf9 insect cells
Method: as §1, §2, §3

HsGSK3β = biological target: T3, HsGSK3β (Homo sapiens, UniProt P49841); test: ADP-Glo in vitro kinase inhibition assay, GSK3β; assay type: biochemical; conditions: 10 μM ATP, read-out: GSK3 % residual activity; for remaining activity at 1 µM: 1 μM compound; for remaining activity at 10 µM: 10 μM compound
T3 construct: made in house; host or cells: Sf9 insect cells (baculovirus)
Method: as §1, §2, §3

HsCDK9/CyclinT = biological target: T4, HsCDK9/CyclinT (Homo sapiens, UniProt P50750); test: ADP-Glo in vitro kinase inhibition assay, CDK9/CyclinT; assay type: biochemical; conditions: 10 μM ATP, read-out: CDK9 % residual activity; for remaining activity at 1 µM: 1 μM compound; for remaining activity at 10 µM: 10 μM compound
T4 construct: made in house; host or cells: Sf9 insect cells (baculovirus)
Method: as §1, §2, §3

RnDYRK1A-kd = biological target: T5, RnDYRK1A-kd (Rattus norvegicus, UniProt Q63470); test: ADP-Glo in vitro kinase inhibition assay, DYRK1A; assay type: biochemical; conditions: 10 μM ATP, read-out: DYRK1A % residual activity; for remaining activity at 1 µM: 1 μM compound; for remaining activity at 10 µM: 10 μM compound
T5 construct: Rattus norvegicus, amino acids 1–499, pGEX-2TK; made in house; host or cells: bacteria
Method: as §1, §2, §3

HsHaspin-kd = biological target: T6, HsHaspin-kd (Homo sapiens, UniProt Q8TF76); test: ADP-Glo in vitro kinase inhibition assay, Haspin; assay type: biochemical; conditions: 10 μM ATP, duplicate; for remaining activity at 1 µM: 1 μM compound; for remaining activity at 1 µM / remaining activity at 10 µM: read-out: Haspin % residual activity; for remaining activity at 10 µM: 10 μM compound
T6 construct: kinase domain, amino acids 470–798 cloned in pGEX-6P-3; made in house; host or cells: bacteria
T6 sequence (Q8TF76 470-798): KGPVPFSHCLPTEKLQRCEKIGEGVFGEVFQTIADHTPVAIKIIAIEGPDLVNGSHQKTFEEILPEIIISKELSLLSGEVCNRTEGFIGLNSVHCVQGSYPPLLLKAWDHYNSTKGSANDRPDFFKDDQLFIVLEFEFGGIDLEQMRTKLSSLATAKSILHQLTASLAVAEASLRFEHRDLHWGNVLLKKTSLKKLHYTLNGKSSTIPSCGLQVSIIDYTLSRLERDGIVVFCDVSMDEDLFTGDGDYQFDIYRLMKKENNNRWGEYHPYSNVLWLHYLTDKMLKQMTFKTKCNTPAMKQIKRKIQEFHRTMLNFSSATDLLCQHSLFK
Method: as §1, §2, §3

CDK5/p25 = biological target: T7, CDK5/p25 (Homo sapiens, UniProt Q00535); test: ADP-Glo in vitro kinase inhibition assay, CDK5/p25; assay type: biochemical; conditions: 10 μM ATP, read-out: CDK5 % residual activity; for remaining activity at 1 µM: 1 μM compound; for remaining activity at 10 µM: 10 μM compound
T7 construct: made in house; host or cells: bacteria
Method: as §1, §2, §3

Pim-1 = biological target: T8, Pim-1 (Homo sapiens, UniProt P11309); test: ADP-Glo in vitro kinase inhibition assay, Pim-1; assay type: biochemical; conditions: 10 μM ATP, read-out: PIM1 % residual activity; for remaining activity at 1 µM: 1 μM compound; for remaining activity at 10 µM: 10 μM compound
T8 construct: made in house; host or cells: bacteria
Method: as §1, §2, §3

T4 sequence (P50750 whole entry): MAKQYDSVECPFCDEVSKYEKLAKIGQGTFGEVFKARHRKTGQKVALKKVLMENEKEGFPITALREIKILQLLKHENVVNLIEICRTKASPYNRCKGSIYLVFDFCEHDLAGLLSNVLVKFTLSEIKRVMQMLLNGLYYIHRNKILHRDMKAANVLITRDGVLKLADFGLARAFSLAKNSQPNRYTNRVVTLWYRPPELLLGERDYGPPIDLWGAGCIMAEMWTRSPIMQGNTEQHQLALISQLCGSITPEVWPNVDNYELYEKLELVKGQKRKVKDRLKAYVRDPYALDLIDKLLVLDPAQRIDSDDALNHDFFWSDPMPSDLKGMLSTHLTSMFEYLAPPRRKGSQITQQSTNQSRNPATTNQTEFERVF
T4 sequence (O60563 whole entry partner): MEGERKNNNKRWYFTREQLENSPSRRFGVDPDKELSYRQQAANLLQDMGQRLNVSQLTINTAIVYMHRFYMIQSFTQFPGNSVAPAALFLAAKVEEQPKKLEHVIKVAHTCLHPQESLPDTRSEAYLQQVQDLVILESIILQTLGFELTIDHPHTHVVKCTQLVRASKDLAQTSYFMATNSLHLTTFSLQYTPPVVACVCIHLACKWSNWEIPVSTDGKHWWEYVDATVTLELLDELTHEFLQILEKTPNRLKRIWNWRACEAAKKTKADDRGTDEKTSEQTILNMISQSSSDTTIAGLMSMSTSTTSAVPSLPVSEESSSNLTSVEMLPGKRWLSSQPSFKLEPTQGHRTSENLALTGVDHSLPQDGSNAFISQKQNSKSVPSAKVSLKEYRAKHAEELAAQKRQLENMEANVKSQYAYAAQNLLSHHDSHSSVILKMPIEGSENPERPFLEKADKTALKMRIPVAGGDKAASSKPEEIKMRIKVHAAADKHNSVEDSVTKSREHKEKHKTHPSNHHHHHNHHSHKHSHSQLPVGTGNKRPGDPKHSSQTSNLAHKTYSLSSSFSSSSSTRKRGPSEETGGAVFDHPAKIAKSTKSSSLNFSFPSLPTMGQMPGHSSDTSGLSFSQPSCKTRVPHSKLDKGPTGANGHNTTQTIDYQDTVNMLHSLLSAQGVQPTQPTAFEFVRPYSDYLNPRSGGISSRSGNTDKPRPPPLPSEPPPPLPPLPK
T3 sequence (P49841 whole entry): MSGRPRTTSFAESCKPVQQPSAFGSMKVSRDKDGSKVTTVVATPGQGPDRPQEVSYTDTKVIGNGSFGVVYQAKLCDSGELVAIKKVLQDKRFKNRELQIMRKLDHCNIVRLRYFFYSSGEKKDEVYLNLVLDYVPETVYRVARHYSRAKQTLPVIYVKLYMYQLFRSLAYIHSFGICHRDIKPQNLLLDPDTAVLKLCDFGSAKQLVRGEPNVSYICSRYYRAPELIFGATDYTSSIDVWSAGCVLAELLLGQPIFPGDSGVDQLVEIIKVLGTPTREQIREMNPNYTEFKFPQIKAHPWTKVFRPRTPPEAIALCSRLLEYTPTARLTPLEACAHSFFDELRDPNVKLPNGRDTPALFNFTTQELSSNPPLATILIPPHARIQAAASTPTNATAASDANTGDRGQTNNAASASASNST
T1 sequence (P49674 whole entry): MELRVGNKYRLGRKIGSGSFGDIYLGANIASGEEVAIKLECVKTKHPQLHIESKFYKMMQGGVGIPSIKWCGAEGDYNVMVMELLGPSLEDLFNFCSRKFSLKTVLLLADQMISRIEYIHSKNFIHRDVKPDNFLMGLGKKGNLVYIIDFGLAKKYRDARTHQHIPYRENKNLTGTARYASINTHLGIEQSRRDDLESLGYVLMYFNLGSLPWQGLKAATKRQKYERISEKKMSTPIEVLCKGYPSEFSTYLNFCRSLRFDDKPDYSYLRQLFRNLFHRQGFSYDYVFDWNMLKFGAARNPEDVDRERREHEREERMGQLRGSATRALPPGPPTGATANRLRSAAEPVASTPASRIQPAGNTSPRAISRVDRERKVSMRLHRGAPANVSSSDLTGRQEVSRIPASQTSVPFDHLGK
T8 sequence (P11309 whole entry): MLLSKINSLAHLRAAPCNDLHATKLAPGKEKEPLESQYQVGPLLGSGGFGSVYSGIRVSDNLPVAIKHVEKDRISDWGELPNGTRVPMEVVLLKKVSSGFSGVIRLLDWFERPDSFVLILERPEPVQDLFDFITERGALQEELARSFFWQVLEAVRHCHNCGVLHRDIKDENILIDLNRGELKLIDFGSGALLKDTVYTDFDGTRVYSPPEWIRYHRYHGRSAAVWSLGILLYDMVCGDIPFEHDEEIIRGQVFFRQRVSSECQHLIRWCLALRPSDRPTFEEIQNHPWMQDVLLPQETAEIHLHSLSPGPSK
T2 sequence (P49759 whole entry): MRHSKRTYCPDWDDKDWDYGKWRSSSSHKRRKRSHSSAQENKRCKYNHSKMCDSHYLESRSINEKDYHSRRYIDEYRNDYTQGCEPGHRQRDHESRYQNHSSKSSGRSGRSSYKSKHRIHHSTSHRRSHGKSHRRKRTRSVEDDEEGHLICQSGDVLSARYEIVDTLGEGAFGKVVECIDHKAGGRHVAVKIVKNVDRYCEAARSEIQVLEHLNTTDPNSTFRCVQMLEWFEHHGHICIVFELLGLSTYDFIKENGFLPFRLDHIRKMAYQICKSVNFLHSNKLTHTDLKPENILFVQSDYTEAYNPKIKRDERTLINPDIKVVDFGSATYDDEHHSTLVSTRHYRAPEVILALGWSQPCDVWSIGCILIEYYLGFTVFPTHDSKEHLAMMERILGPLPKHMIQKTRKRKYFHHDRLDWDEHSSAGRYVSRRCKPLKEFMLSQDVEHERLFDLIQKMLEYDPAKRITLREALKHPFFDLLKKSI
T7 sequence (Q00535 whole entry): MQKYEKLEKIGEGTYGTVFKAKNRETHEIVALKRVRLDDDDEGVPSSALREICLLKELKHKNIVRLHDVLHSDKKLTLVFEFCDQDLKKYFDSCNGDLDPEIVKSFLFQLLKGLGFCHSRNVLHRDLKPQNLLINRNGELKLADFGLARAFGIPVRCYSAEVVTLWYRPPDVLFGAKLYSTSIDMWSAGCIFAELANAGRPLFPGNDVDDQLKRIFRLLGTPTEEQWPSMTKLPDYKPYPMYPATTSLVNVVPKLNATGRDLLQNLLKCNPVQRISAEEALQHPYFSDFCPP
T7 sequence (Q15078 99-307 partner limits assumed): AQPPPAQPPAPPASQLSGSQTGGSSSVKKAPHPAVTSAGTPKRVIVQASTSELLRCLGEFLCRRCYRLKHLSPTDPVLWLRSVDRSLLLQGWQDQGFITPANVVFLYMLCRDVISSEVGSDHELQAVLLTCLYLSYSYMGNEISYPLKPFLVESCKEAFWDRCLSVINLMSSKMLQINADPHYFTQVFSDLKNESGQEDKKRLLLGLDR

remaining activity at 1 µM (HsCK1ε) | remaining activity at 10 µM (HsCK1ε) | remaining activity at 1 µM (HsCLK1) | remaining activity at 10 µM (HsCLK1) | remaining activity at 1 µM (HsGSK3β) | remaining activity at 10 µM (HsGSK3β) | remaining activity at 1 µM (HsCDK9/CyclinT) | remaining activity at 10 µM (HsCDK9/CyclinT) | remaining activity at 1 µM (RnDYRK1A-kd) | remaining activity at 10 µM (RnDYRK1A-kd) | remaining activity at 1 µM (HsHaspin-kd) | IC50 (HsHaspin-kd) | remaining activity at 10 µM (HsHaspin-kd) | remaining activity at 1 µM (CDK5/p25) | remaining activity at 10 µM (CDK5/p25) | remaining activity at 1 µM (Pim-1) | remaining activity at 10 µM (Pim-1) | Molecule | IC50 (Haspin) | Ki (Haspin)
79% | 54% | 56% | 27% | 76% | 81% | 81% | 56% | 20% | 16% | 9% | 10.1 nM | 8% | 100% | 100% | 20% | 14% | Clc1cc(-c2c[nH]c3cc4cnccc4cc23)ccn1 [Compound 2, 3-(2-Chloro-pyridin-4-yl)-1H-pyrrolo[3,2-g]isoquinoline] | – | –
92% | 87% | 86% | 48% | 80% | 80% | 79% | 32% | 51% | 28% | 30% | 392 nM | 12% | 100% | 100% | 42% | 21% | CC(C)(C)OC(=O)/C=C/c1c[nH]c2cc3cnccc3cc12 [Compound 9, tert-Butyl (E)-3-(1H-Pyrrolo[3,2-g]isoquinolin-3-yl)prop-2-enoate] | – | –
100% | 97% | 91% | 60% | 100% | 99% | 90% | 72% | 72% | 32% | 45% | 82.1 nM | 10% | 100% | 100% | 72% | 52% | COC(=O)CCc1c[nH]c2cc3cnccc3cc12 [Compound 10, Methyl 3-(1H-Pyrrolo[3,2-g]isoquinolin-3-yl)propanoate] | – | –
98% | 81% | 98% | 81% | 83% | 94% | 100% | 86% | 58% | 31% | 70% | – | 52% | 100% | 100% | 70% | 60% | CC(C)(C)OC(=O)CCc1c[nH]c2cc3cnccc3cc12 [Compound 11, tert-Butyl 3-(1H-Pyrrolo[3,2-g]isoquinolin-3-yl)propanoate] | – | –
– | – | – | – | – | – | – | – | – | – | – | – | – | – | – | – | – | Cc1ccc(NC(=O)c2ccc3c(c2)c(CNCCN2CCNCC2)cn3C)cc1C [Compound A] | 0.01 nM | –
– | – | – | – | – | – | – | – | – | – | – | – | – | – | – | – | – | COc1ccc2c(c1)[nH]c1c(C)nccc12 [Harmine, harmine] | 590 nM | –
– | – | – | – | – | – | – | – | – | – | – | – | – | – | – | – | – | COc1ccc2nc3ccc(Cl)cc3c(SCCCN)c2c1 [LDN-209929] | 55 nM | –
– | – | – | – | – | – | – | – | – | – | – | – | – | – | – | – | – | C#Cc1cn([C@@H]2S[C@H](CN=[N+]=[N-])[C@@H](O)[C@H]2O)c2ncnc(N)c12 [LJ-4827] | – | 0.465 nM
– | – | – | – | – | – | – | – | – | – | – | – | – | – | – | – | – | harmol | 770 nM | –
